Reference: US20180030483A1, “PROCESS FOR PRODUCTION OF BIO-ALCOHOL” (DANISCO US INC., priority 2015, published 2018)
Like-named read-outs stand apart in the source and are kept apart here.

Experiments:
[1] = tested on: Saccharomyces cerevisiae; conditions: molasses media, 0 to 1000 ppm, 3 g active dry yeast, 32° C.
Description: Molasses Medium: The media was prepared by diluting 333 g molasses with water to final weight of 1000 g (w/w). To this 400 mg of urea was added as nitrogen source.
Saccharomyces cerevisiae was used in the form of active dry yeast at a concentration of 3% w/v or was pre-cultured by adding 6 g of active dry yeast into 100 ml YEGM in 250 ml Erlenmeyer's flask. The cultures were incubated at 32° C.±2° C. with mixing at 100 to 200 rpm to a final OD660 of 100±10. This culture was subsequently used as an inoculum for further fermentation studies at a concentration of 6% v/v.
The composition of the reaction products was measured by high pressure liquid chromatographic method (Agilent Isocratic system 1200, USA with RI detector) by injecting 20 μL of appropriately diluted samples onto a Aminex Column HPX-87H (catalogue number 1250140, Bio-Rad) maintained at 60° C. using 0.01N sulphuric acid as a mobile phase at a flow rate of 0.7 mL/min. The detection was carried out using Refractive index detector (RID).
Fermentation was carried out at 32° C.±2° C. in incubator shaker at 100-200 rpm. The fermentation was carried out until glucose value observed was less than 0.1% w/v. Thereafter, the samples were analysed for alcohol, organic acids, and glycerol profile by HPLC.
Batch fermentation was initiated by addition of sodium benzoate at a concentration ranging from 0 to 1000 ppm followed by 3 g of active dry yeast into 100 ml molasses media in 250 mL Erlenmeyer flasks. Fermentation was carried out in incubator shaker at 32° C.±2° C. at 100 to 200 rpm. Thereafter, the samples were analysed for alcohol, organic acids, and glycerol profile by HPLC.
Fermentation was carried out at 32° C.±2° C. in incubator shaker at 100 to 200 rpm. The fermentation was carried out until glucose value observed was less than 0.1% w/v. Thereafter, the samples were analysed for alcohol, organic acids, and glycerol profile by HPLC.

[2] = tested on: Saccharomyces cerevisiae; test: Batch yeast fermentation in YEGM medium with added organic acid salt; format: cell-based; conditions: increasing concentration 0 to 1000 ppm; for increase in ethanol production: 32° C., until glucose less than 0.1% w/v; for yeast growth: biomass by OD660
Description: Yeast Extract Glucose media (YEGM): YEGM was prepared by dissolving 0.75 g Yeast Extract and 10 g dextrose dissolved in 100 ml tap water with pH in range […]. The media was then sterilized at 121° C. for 20 min.
The yeast biomass was measured using UV-Vis spectrophotometers (Shimadzu UV-1800) by diluting with YEGM to an OD660 in range of 0.2 to 0.8 with Milli-Q water.
Thereafter, the samples were analysed for alcohol and glycerol profile by HPLC and yeast biomass by UV Spectrophotometer.

SMILES | acetic acid yield [1] | ethanol production [1] | glycerol yield [1] | glycerol yield [2] | increase in ethanol production [2] | yeast growth [2]
C/C=C/C=C/C(=O)[O-].[K+] [potassium sorbate] | reduced | increased | reduced | reduced | ≥ 6% | reduced
O=C([O-])c1ccccc1.[Na+] [sodium benzoate] |  | increased | reduced | reduced | ≥ 6% | reduced
